Data on 8 compounds can be found in ChEMBL document CHEMBL1132530, “Picking the S1, S1' and S2' pockets of matrix metalloproteinases. A niche for potent acyclic sulfonamide inhibitors” (Bioorg Med Chem Lett, 1999).

The target in assay [1] is Stromelysin-1 (Homo sapiens, UniProt P08254). Put plainly: Inhibition of matrix metalloprotease-3.
Assay [2] addresses 72 kDa type IV collagenase (Mus musculus, UniProt P33434). Put plainly: (§1) Inhibition of matrix metalloprotease-2.
The target of assay [3] is Collagenase 3 (Homo sapiens, UniProt P45452). Briefly: Inhibition of matrix metalloprotease-13.
The target in assay [4] is Matrix metalloproteinase-9 (Mus musculus, UniProt P41245). Briefly: Inhibitory concentration required against matrix metalloprotease-9 (MMP-9 gelatinase B).
Matrix metalloproteinase-9 (Mus musculus, UniProt P41245), sequence (P41245 whole entry): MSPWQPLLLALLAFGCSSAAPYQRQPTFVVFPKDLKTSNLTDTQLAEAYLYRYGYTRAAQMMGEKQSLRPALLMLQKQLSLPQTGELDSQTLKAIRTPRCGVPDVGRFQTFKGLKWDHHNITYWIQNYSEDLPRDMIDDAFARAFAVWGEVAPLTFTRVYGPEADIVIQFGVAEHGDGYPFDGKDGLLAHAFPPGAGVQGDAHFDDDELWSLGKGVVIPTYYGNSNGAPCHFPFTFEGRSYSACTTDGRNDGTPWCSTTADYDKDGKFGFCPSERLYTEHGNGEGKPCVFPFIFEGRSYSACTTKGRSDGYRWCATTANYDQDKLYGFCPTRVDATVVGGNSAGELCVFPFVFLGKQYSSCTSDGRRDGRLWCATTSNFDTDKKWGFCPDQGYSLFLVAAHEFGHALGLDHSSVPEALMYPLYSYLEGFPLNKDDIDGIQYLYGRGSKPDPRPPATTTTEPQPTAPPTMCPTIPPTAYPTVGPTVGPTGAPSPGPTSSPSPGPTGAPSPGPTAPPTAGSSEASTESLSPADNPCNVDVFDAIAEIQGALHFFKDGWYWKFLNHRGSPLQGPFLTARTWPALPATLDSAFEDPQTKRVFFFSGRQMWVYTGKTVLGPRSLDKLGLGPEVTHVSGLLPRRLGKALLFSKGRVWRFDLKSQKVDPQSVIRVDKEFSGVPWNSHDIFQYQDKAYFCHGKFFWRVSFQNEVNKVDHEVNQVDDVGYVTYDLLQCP
Assay [5] has as its target 72 kDa type IV collagenase (Homo sapiens, UniProt P08253). Described as §1.
Assay [6] deals with T1, Interstitial collagenase (Homo sapiens, UniProt P03956).
T1 sequence (P03956 whole entry): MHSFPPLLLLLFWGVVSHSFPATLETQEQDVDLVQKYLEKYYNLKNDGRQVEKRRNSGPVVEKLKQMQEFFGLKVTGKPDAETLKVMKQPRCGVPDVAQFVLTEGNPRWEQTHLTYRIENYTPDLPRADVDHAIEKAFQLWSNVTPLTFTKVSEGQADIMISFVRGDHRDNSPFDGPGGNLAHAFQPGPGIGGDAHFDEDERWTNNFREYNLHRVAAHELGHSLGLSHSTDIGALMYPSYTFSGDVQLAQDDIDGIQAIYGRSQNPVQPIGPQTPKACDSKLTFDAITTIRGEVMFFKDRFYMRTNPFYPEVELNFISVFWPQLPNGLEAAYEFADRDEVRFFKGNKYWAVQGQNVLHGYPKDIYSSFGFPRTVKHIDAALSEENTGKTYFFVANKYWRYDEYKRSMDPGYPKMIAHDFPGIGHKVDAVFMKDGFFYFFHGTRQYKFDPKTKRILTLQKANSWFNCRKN
Put plainly: Inhibition of matrix metalloprotease-1.

Assay [7] deals with Matrix metalloproteinase-9 (Homo sapiens, UniProt P14780). Put plainly: Inhibition of matrix metalloprotease-9.
Matrix metalloproteinase-9 (Homo sapiens, UniProt P14780), sequence (P14780 whole entry): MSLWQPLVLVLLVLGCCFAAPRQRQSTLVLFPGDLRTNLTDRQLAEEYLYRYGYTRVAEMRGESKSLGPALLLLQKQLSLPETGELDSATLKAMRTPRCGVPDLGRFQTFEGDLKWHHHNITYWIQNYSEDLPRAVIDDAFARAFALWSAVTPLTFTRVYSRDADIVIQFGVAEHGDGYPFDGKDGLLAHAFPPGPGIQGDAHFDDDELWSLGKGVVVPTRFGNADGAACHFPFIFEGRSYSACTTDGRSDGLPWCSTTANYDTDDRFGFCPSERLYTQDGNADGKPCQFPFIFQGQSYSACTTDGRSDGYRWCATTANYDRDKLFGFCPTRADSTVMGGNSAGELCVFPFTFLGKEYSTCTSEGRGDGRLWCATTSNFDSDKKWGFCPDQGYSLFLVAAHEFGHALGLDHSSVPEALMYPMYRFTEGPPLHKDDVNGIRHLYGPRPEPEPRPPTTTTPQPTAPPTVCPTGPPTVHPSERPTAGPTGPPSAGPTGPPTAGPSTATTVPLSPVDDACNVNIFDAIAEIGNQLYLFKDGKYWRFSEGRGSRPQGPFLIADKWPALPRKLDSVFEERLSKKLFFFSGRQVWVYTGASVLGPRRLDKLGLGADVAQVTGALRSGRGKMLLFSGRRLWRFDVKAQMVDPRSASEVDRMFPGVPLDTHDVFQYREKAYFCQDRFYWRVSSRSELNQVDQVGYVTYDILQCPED

72 kDa type IV collagenase (Mus musculus, UniProt P33434), sequence (P33434 whole entry): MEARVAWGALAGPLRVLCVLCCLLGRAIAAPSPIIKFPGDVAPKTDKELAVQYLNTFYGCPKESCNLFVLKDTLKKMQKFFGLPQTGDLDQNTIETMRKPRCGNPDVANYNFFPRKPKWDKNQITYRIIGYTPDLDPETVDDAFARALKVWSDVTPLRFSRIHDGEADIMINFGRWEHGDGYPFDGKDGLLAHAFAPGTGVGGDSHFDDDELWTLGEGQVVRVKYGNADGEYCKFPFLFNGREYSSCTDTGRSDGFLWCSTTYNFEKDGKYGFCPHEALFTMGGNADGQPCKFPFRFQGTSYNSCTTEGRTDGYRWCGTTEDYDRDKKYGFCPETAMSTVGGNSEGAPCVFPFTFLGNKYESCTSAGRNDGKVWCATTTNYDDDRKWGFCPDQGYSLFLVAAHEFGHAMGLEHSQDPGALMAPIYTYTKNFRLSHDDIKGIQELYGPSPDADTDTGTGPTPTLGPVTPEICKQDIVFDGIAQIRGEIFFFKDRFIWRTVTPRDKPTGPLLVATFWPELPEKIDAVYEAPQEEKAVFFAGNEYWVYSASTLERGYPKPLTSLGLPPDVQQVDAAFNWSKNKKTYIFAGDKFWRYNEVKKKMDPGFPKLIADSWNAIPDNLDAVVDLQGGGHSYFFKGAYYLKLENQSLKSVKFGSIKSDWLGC
Stromelysin-1, sequence (P08254 whole entry): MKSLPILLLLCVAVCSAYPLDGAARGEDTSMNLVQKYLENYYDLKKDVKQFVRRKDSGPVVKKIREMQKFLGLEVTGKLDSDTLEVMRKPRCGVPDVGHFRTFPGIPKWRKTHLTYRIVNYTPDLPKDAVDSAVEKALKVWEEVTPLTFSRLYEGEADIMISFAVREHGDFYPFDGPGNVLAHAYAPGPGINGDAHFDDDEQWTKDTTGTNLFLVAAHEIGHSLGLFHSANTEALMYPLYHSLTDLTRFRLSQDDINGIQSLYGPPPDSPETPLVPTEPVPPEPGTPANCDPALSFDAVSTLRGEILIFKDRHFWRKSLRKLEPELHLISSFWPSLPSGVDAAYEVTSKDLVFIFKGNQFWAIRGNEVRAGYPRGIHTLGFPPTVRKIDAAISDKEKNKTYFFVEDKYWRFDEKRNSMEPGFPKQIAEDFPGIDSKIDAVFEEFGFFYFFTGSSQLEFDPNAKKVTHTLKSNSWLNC
72 kDa type IV collagenase (Homo sapiens, UniProt P08253), sequence (P08253 whole entry): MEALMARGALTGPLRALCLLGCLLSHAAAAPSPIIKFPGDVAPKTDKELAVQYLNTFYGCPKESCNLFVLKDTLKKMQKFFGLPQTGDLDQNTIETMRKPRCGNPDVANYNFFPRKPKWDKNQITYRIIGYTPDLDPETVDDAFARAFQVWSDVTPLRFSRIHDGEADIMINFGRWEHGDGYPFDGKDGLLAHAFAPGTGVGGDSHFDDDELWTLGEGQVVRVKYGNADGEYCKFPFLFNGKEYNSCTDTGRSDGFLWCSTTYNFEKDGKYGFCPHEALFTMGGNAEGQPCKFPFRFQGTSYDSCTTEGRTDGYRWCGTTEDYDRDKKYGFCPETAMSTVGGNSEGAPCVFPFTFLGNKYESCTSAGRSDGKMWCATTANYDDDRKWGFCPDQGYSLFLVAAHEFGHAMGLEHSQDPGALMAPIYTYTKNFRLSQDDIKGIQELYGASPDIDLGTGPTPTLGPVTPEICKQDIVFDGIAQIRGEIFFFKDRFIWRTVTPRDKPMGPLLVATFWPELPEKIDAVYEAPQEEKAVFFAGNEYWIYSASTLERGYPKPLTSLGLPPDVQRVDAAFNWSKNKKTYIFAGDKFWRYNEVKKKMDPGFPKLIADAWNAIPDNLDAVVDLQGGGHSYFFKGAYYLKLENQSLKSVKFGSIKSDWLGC

As to `COc1ccc(S(=O)(=O)N(CC(=O)NC(c2ccccc2)c2ccccc2)[C@H](CCSCc2ccccc2)C(=O)NO)cc1`, the IC50 (usually the concentration at which inhibition is half-maximal) in assay [1] was found to be 3.7 nM; in assay [2], 2.3 nM; in assay [3], 4.5 nM; in assay [4] it was 0.5 nM.

Take `COc1ccc(S(=O)(=O)N(Cc2cccnc2)[C@@H](C(=O)NO)C(C)C)cc1` [CGS-27023A]: the values for the IC50 in assay [2] and in assay [4] were 15 nM and 10 nM, respectively.

Take `CC[C@@H](C(=O)NO)N(CC(C)C)S(=O)(=O)c1ccc(OC)cc1`: the IC50 was 45 nM in assay [1]; 53 nM in assay [5]; 384 nM in assay [6]; 96 nM in assay [3]; 7 nM in assay [7].

On to `COc1ccc(S(=O)(=O)N(CC(C)C)[C@@H](CCSCc2ccccc2)C(=O)NO)cc1`, for which the IC50 worked out at 0.7 nM in assay [1]; 0.7 nM in assay [5]; 104 nM in assay [6]; 12 nM in assay [3]; 2.5 nM in assay [7].

Turning to `CSCC[C@@H](C(=O)NO)N(CC(C)C)S(=O)(=O)c1ccc(-c2ccccc2)cc1`, the IC50 in assay [1] turned out to be 37 nM; in assay [5], 0.7 nM; in assay [6], 156 nM; in assay [3], 3 nM; in assay [7], 0.2 nM.

Consider `CC(C)CN([C@@H](CCSCc1ccccc1)C(=O)NO)S(=O)(=O)c1ccc(-c2ccccc2)cc1`, for which the IC50 stood at 90 nM in assay [1], 4.1 nM in assay [2], 3.8 nM in assay [3] and 2.5 nM in assay [4].

Take `COc1ccc(S(=O)(=O)N(CC(C)C)[C@@H](CCSCc2ccc(-c3ccccc3)cc2)C(=O)NO)cc1`: the concentration for half-maximal inhibition (IC50) in assay [1] was found to be 20 nM; in assay [5], 30 nM; in assay [7], 0.2 nM.

For the compound `COc1ccc(S(=O)(=O)N(CC(C)C)[C@@H](CCSCc2ccc(OCc3ccccc3)cc2)C(=O)NO)cc1`, the concentration for half-maximal inhibition (IC50) in assay [1] was found to be 29 nM; in assay [7], 8 nM.
